# In patent US20240082183A1, “METHODS FOR PREVENTING OR TREATING CONDITIONS RELATED TO T CELL MEDIATED INTESTINAL DISORDERS” (The Regents of the University of Michigan, priority 2021, published 2024):
# Key:
# [1] = tested on: primary colonic epithelial cells (PCECs); experiment: In vitro allogeneic CTL assay, AnnexinV positive cells of Green CMFDA Dye positive PCECs; conditions: PCECs treated 0.2 mM for 2 hours
# Experimental: PCECs were pre-treated with 5mM DMM, 0.5mM DI, 10nM atpenin A5 or vehicle for 3 hours.
# Flow cytometry: Cells were re-suspended in 2% BSA in PBS and stained with the following antibodies and reagents; FITC-anti-CD326 (G8.8, #118208, 1:200), APC-anti-CD326 (G8.8, #118214, 1:200), DAPI, CellROX Deep Red (#C10491, 500 nM, Thermo Scientific), MitoSOX (#M36008, 5 μM, Thermo Scientific), JC-1 (#M34152, 2 μM, Thermo Scientific), 7-AAD (#420404, 1:100, BioLegend), Annexin V (#640947, 1:20, Biolegend), anti-CD16/CD32 antibody (BD Biosciences, 2.4G2), APC-anti-CD45.2 (#109814, 1:200, BioLegend), and CellTracker Green CMFDA Dye (#C7025, 1 μM, Invitrogen) according to manufacturer's protocol. Cells were run on Attune NxT flow cytometer (Thermo Scientific) and analyzed using FlowJo v10.2 (FlowJo LLC, Ashland, OR).
# [2] = tested on: primary colonic epithelial cells (PCECs); experiment: Apoptosis of pre-treated PCECs induced by perforin and Granzyme B; assay type: cell-based, C57BL/6 mice; conditions: pre-treated 2 hours, then perforin and Granzyme B 4 hours
# Experimental: Cell culture: C57BL/6 primary colonic epithelial cells (PCEC, C57-6047, Cell Biologics, Chicago, IL) were cultured in compete epithelial growth medium supplemented with insulin-transferrin-selenium, epidermal growth factor, glutamine, antibiotics, antimycotics and fecal bovine serum (#M6621, Cell Biologics). Cells were routinely tested for mycoplasma contamination using MycoAlert (#LT07-318, Lonza, Switzerland). Cells were treated with Mouse active perforin (#APB317Mu01, Cloud-Clone Corp., Katy, TX) and recombinant mouse Granzyme B (#140-03, PeproTech, Rocky Hill, NJ) for 4 to 6 hours in indicated concentrations following manufacturer's recommendations. Cells were incubated with GDF-15 (#8944-GD-025, 500 pg/mL, R&D Systems, Minneapolis, MN), Tiron (#172553, 10 mM, Sigma-Aldrich, St. Louis, MO), Trolox (#648471, 0.5 mM, Sigma-Aldrich), 4-Octyl itaconate (#SML2338, 0.1 mM, Sigma-Aldrich) and NAD (#N8285, 1 mM, Sigma-Aldrich).
# [3] = tested on: GI GVHD in B6 WT recipients; assay type: in vivo; conditions: for clinical GVHD severity of allogeneic mice vs vehicle / survival of allogeneic mice vs vehicle / survival of syngeneic mice: gavage every other day from day 0 post HCT; for histopathological GVHD severity in the colon and ileum / histopathological GVHD severity in the liver, skin, and lungs: allogeneic recipients, 7 days post HCT
# Experimental: (§1) Hematopoietic cell transplantation (HCT): Splenic T cells from donors were enriched, and the BM was depleted of T cells by autoMACS (Miltenyi Biotec, Bergisch Gladbach, Germany) utilizing CD90.2 microbeads (#130-121-278, Miltenyi Biotec). WT B6, C3H.SW, Sdhaf1^−/−, Sdha^Δ/IEC , Irg1h−/−B6 and BALB/c animals were used as recipients and received 1,000 cGy (WT B6, Sdhaf1^−/−and Sdha^Δ/IEC) or 800 cGy (BALB/c) TBI on day −1, respectively, and 1×10^6 (C3H.SW→C57BL/B6 or C57BL/B6→BALB/c), 3×10^6 (BALB/c→C57BL/6, Sdhaf1^−/−, Sdha^Δ/IEC) CD90.2^+T cells along with 5×10^6 T-cell-depleted BM (TCD-BM) cells from either syngeneic or allogeneic donors on day 0. [B6Ly5.2→B6] and [B6 Ly5.2→Sdhaf1^−/−] animals received 900 cGy TBI on day −1 and were injected intravenously with 3×10^6 CD90.2^+T cells and 5×10^6 TCD-BM from either syngeneic B6 or BALB/c donors on day 0. For the chemotherapy conditioning model, B6 WT mice received busulfan (#B2635, 25 mg kg^−1 from day −7 to −4; Sigma-Aldrich) and cyclophosphamide (#C7397, 100 mg kg^−1 from day −3 to −2; Sigma-Aldrich) intraperitoneally, and 1×10^7 (BALB/c→C57BL/6) CD90.2^+T cells along with 1×10^7 TCD-BM cells from either syngeneic or allogeneic donors on day 0. For the no-irradiated model, unirradiated B6D2F1 mice were intravenously injected with 10×10^7 splenocytes from B6D2F1 or B6 donors. Animals received vehicle or dimethyl malonate (DMM, #136441, 0.5 g or 5g kg^−1, Sigma-Aldrich, St. Louis, MO, USA), dimethyl itaconate (DI, #09533, 0.25 g or 2.5g kg^−1, Sigma-Aldrich) or atpenin A5 (#11898, 0.9 μg or 9 μg kg^−1, Cayman Chemical, Ann Arbor, MI, USA) according to manufacturer's instructions by flexible 20-gauge, 1,5-in, intra-gastric gavage needle every other day from day 0. The mice were randomly assigned to syngeneic, allogeneic or treatment groups in each experiment. No mice were excluded from analysis. No statistical methods were used to predetermine sample size. The investigators were not blinded to allocation during experiments and outcome assessment.
# Systemic and histopathological analysis of GVHD: Survival after HCT was monitored daily and assessed the degree of clinical GVHD weekly, as described previously^64. Histopathological analysis of the liver, gastrointestinal (GI) tract, and lung, which are the primary GVHD target organs, was performed as described utilizing a semi-quantitative scoring system implemented in a blinded manner by a single pathologist (C.L.)^65. After scoring, the codes were broken, and the data compiled.
# SDHA = biological target: T1, SDHA (Mus musculus, UniProt Q8K2B3+Q9CQA3+Q9CXV1+Q9CZB0); experiment: SDH enzyme staining of colon and ileum 12 h after oral gavage; assay type: in vivo, B6 WT mice; conditions: naive B6 WT, 12 h after administration
# T1 construct: from tissue; host or cells: colon and ileum of naive B6 WT mice
# T1 sequence (Q8K2B3 43-664): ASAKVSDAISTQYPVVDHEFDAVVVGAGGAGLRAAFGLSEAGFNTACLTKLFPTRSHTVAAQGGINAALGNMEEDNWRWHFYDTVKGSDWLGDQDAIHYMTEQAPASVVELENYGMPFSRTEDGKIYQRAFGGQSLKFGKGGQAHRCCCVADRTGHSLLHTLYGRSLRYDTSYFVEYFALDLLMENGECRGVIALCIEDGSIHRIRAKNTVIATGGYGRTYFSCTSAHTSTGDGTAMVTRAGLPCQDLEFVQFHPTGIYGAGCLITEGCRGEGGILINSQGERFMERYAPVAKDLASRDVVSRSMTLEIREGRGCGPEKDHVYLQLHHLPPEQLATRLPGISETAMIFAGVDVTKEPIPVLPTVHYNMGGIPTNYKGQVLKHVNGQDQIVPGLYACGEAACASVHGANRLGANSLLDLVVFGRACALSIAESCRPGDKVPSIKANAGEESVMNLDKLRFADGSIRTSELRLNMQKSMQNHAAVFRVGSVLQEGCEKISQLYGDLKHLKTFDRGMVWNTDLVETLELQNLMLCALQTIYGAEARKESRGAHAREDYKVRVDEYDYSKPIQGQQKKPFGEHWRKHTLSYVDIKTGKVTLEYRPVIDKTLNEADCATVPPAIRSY
# T1 sequence (Q9CQA3 31-282): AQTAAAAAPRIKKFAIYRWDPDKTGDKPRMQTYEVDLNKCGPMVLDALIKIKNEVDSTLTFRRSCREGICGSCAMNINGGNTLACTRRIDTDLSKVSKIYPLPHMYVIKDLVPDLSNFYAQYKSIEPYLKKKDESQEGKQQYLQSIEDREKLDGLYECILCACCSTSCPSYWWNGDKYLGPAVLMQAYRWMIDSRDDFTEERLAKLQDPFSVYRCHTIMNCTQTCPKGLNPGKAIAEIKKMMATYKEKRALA
# T1 sequence (Q9CZB0 30-169): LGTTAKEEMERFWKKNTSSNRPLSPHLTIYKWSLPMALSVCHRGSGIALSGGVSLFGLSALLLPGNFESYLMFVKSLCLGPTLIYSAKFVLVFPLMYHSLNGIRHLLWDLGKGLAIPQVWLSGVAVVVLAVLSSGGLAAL
# T1 sequence (Q9CXV1 57-159): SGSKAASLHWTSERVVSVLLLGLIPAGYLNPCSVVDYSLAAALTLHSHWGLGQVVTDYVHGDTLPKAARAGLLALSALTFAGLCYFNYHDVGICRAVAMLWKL
# Experimental: as §1, with “The mice were randomly assigned to syngeneic, allogeneic or treatment groups in each experiment. No mice were excluded from analysis. No statistical methods were used to predetermine sample size. The investigators were not blinded to allocation during experiments and outcome assessment.” left out
# Succinate dehydrogenase functional staining: Specimens were dissected from naïve, syngeneic and allogeneic WT B6 mice at 7 and 21 days post HCT. […] After mounting the slides, images were obtained using Olympus BX51M (Olympus, Japan) and the SDH activity was quantified using Image J (National Institutes of Health, Bethesda, […], USA).
# [4] = tested on: primary colonic epithelial cells (PCECs); experiment: 51Cr release cytotoxic killing assay, pre-treated PCECs as targets of primed T cells; assay type: cell-based, B6 WT mice; conditions: for cell death of pre-treated PCECs vs diluent: co-cultured with allo-primed T cells; for apoptosis of pre-treated PCECs: cultured with syngeneic T cells
# [5] = tested on: isolated mitochondria of colon; experiment: ATP detection assay in isolated mitochondria from IECs; assay type: biochemical, mice; conditions: 21 days post HCT, after malonate treatment
# Experimental: Mitochondria Isolation: Isolated IECs from syngeneic and allogeneic recipients in mitochondria isolation buffer (MIB) were disrupted using a glass homogenizer with 2-3 strokes. MIB was composed of 70 mM sucrose (#S0389, Sigma-Aldrich), 210 mM mannitol (#M9546, Sigma-Aldrich), 5 mM HEPES, 1 mM EGTA (#E0396, Sigma-Aldrich), 0.5% BSA, pH 7.2 and protease inhibitor cocktail (#78429, Sigma-Aldrich). Homogenate was centrifuged at 800 g for 10 min at 4° C. Following centrifugation, fat/lipid was carefully aspirated, and the remaining supernatant was decanted through 2 layers of cheesecloth to a separate tube and centrifuged twice at 8000 g for 15 min at 4° C. After removal of the light mitochondrial layer, the pellet was resuspended in MIB and centrifuged at 8500 g for 10 min. The final pellet was resuspended in a minimal volume of mitochondrial assay solution (MAS) and kept on ice. […] Total protein (mg/ml) was determined via Pierce BCA Protein Assay (#23225, Thermo Scientific). […] The ATP level was measured using the Cell Titer Glo 2.0 luminescence assay (#G9243, Promega, Madison, WI). Luminescence was measured for 500 ms using a SpectraMax M3 Microplate reader (Molecular Devices, San Jose, CA).
# B6 WT mice, colonic IECs = experiment: DSS chemical induced colitis model; assay type: in vivo; conditions: twelve days after DSS treatment, vs control animals
# Experimental: Colitis models: For the DSS colitis model, animals were provided with drinking water containing 2.5-3% DSS (#0216011010. MP Biomedicals, Santa Ana, CA) for 7 days. Mice were injected with 100 μg of anti-CTLA-4 mAb (#BE0164, clone 9D9, Bio X Cell, West Lebanon, NH) or isotype control (#BE0086, MCP-11, Bio X Cell) twice (3 and 1 day before DSS administration). For the T-cell transfer induced colitis model, isolated splenic T cells from WT B6 and Prf^−/−mice were stained with DAPI (#422801, 1 μM, Biolenged), APC-Cy7 anti-CD4 (#560246, GK1.5, 1:100, BD Biosciences, San Jose, CA), APC anti-CD25 (#101910, 3C7, 1:100, Biolegend), FITC anti-CD44 (#103006, IM7, 1:100, Biolegend) and PE anti-CD45RB (#103308, C363-16A, 1:100, Biolegend). CD4^+CD25^−CD44^−CD45RB^hi cells were sorted with the MoFlo Astrios cell sorter (Beckman Coulter, Indianapolis, IN) and intraperitoneally injected into Rag-1^−/−recipients.
# Fluorescent immunohistochemistry staining: Sections were prepared as mentioned in the SDH functional staining method. […] SDH levels were quantified and measured in intensity from Cy3 positive epithelial cells using Image J. For primary mice colonic epithelial cells, cells were spun down and put on coverslips. […]
# Succinate quantification: Isolated IECs were collected, processed and analysed using the Succinate Assay Kit (#ab204718, Abcam) according to the manufacturer's protocol.
molecule,measurement,setting,value
"C=C(CC(=O)OCCCCCCCC)C(=O)O [4-octyl itaconate, 4-Octyl itaconate]",susceptibility to T cell mediated cytotoxicity,[1],enhance susceptibility to T cell mediated cytotoxicity
O=S(=O)(O)c1cc(O)c(O)c(S(=O)(=O)O)c1 [Tiron],apoptosis of PCECs induced by GranzymeB and perforin,[2],did not reduce apoptosis
Cc1c(C)c2c(c(C)c1O)CCC(C)(C(=O)O)O2 (stereo not shown) [Trolox],apoptosis of PCECs induced by GranzymeB and perforin,[2],did not reduce apoptosis
COc1[nH]c(=O)c(C(=O)[C@@H](C)C[C@H](C)[C@@H](Cl)CCl)c(O)c1OC [atpenin A5],clinical GVHD severity of allogeneic mice vs vehicle,[3],more severe GVHD symptoms
same,survival of allogeneic mice vs vehicle,[3],died significantly faster
same,survival of syngeneic mice,[3],survived
same,SDHA function (SDH enzymatic staining),SDHA,inhibited SDHA function
"C=C(CC(=O)OC)C(=O)OC [itaconate, dimethyl itaconate]",histopathological GVHD severity in the colon and ileum,[3],increased GVHD severity
same,"histopathological GVHD severity in the liver, skin, and lungs",[3],"not in the liver, skin, and lungs"
same,clinical GVHD severity of allogeneic mice vs vehicle,[3],more severe GVHD symptoms
same,survival of allogeneic mice vs vehicle,[3],died significantly faster
same,SDHA function (SDH enzymatic staining),SDHA,inhibited SDHA function
same,cell death of pre-treated PCECs vs diluent,[4],significantly higher levels of cell death
same,apoptosis of pre-treated PCECs,[4],no increase in apoptosis
"COC(=O)CC(=O)OC [malonate, dimethyl malonate]",histopathological GVHD severity in the colon and ileum,[3],increased GVHD severity
same,"histopathological GVHD severity in the liver, skin, and lungs",[3],"not in the liver, skin, and lungs"
same,clinical GVHD severity of allogeneic mice vs vehicle,[3],more severe GVHD symptoms
same,survival of allogeneic mice vs vehicle,[3],died significantly faster
same,survival of syngeneic mice,[3],survived
same,SDHA function (SDH enzymatic staining),SDHA,inhibited SDHA function
same,cell death of pre-treated PCECs vs diluent,[4],significantly higher levels of cell death
same,apoptosis of pre-treated PCECs,[4],no increase in apoptosis
same,"ATP production, difference between mitochondria from allogeneic and syngeneic/naive animals",[5],difference diminished
dextran sulfate sodium [DSS],SDHA levels in colonic IECs,"B6 WT mice, colonic IECs",similar
same,succinate levels in colonic IECs,"B6 WT mice, colonic IECs",similar
